Test results: patent publication US4835185A, “Immunomodulator for improving commercial performance of domestic animals” (Iowa State University Research Foundation, Inc., priority 1987, dated 1989)

Columns and labels:
[1] = system: cholesterol in lean tissue and plasma; assay: Lamb trials: cholesterol in lean tissue and plasma; format: in vivo, lambs (sheep)
Source text: (§1) The lambs used in Trial 1 consisted of medium-frame crossbred wethers and ewes weighing 26 to 31 kg. The lambs used in Trial 2 consisted of medium-framced crossbred rams weighing 18 to 25 kg. Each animal was raised as a single. The lambs were housed in a temperature controlled room in individual pens with nipple waterers. When received, the lamps were vaccinated for enterotoxemia. They were allowed to adjust to the pens and the environment for 10 days. One day before the trial began, the lambs were sheared and placed on their respective dietary treatments. The lamps were allotted blocking by weight and sex into two dietary treatment groups. Growth and feed consumption were measured bi-weekly. All lamb weights were taken after a 12 to 16 hour fast. The animals were slaughtered at 50 kg in the Iowa State University Meat laboratory facilities at Ames, Iowa. At slaughter, the lamb's internal organs and wool were weighed and sampled, loin eye area and back fat measured, and carcasses separated into fat, lean, and bone.
The SMB (soybean meal-containing) and the CGM (corn-gluten-containing) diets (compositions given in Table A) were fed twice per day in quantities ensuring that feed was before the lambs at all times. The diets were calculated to be equivalent to each other with respect to metabolizable protein, ether extract, fiber, and minerals with the exception of calcium and phosphorus. […] The CGM diet was calculated to contain slightly more energy (TDN 81.7 vs. 79.0, NEm 1.88 v. 1.86, Neg. 1.23 vs. 1.22). […] The soybean meal ingredient contained about 3.5 wt % leucine, while the corn gluten meal ingredient contained about 15 wt % leucine. The CGM diet was therefore higher in leucine than the SBM diet, containing an estimated 16 wt % leucine as compared with an estimated 8 wt % leucine based on total crude protein in the diet.
^(8) Amount of cholesterol in lean tissue (ng/mg) and plasma (ng/ml).
^(1)- (8) See Table B, except cholesterol data is for lean tissue

T lymphocytes = assay: Lamb Trial 2: lymphocyte blastogenesis (3H-thymidine, phytohemaglutinin); format: cell-based, lambs (sheep); settings: 1% KIC, * p<.05
Source text: as §1
^(9) Lymphocyte blastogenesis measured by amount of ^3
H--thymidine incorporated per 2 hrs. of incubation in the presence of
phytohemaglutinin (a mitogen that stimulates Tlymphocyte division).

lymphocytes = assay: Study of Immune Function: lymphocyte blastogenesis, cattle (experiment 3); format: cell-based, castrated male cattle
white blood cells = assay: White blood cell number and differential, cattle (experiment 3); format: in vivo, castrated male cattle
Experimental: In experiment 3 72 castrated male cattle were allotted to 12 pens of 6 animals each. Three pens were assigned to each treatment: 0.0% KIC, 0.02% KIC, 0.07% KIC, and 0.20% KIC. Animals were fed ad libitum the respective diets for 6 weeks. At the end of the 6-233k periods, 100-ml blood samples were collected from each animal, and lymphocyte and neutrophil function were evaluated.
The basal cattle diet (experiment 3) consisted of 49% corn, 24% corn-cobs, 18% soybean meal, 7% molasses, 1.3% limestone, 0.25% dicalcium phosphate, 0.23% salt, 0.02% trace-mineral premix, and 0.11% vitamin premix. The basal diet was supplemented with w/w 0.05% control pellets, 0.04% KIC pellets, or 0.4% KIC pellets. All animals consumed ~10 kg of feed per day, resulting in ~0, 2, 7, or 20 g of Ca-KIC consumed per animal per day or 0, 0.02, 0.07, and 0.2% KIC of the total diet.
KIC pellets were made by mixing zein, ethanol, KIC, limestone, bentonite, and water in a ratio of […]. This mixture was extruded through a die of 15 mm directly into a vat of liquid nitrogen. The shattered pellets were spread out and allowed to air-dry for 2 days. The pellets were coated with zein (2% w/w) by spraying with a 30% zein solution made in 80% ethanol. The pellets again were air-dryed. Control pellets were made similarly to the KIC pellets except that the mixture was zein, limestone, ethanol, bentonite, and water in a ratio of 12:12:7.5:2.7:1. When KIC pellets were placed in the rumen (nylon bag technique), […] of the KIC added was present in the bags after 24 hr of rumen fermentation. It was estimated that uncoated KIC was 95% degraded in the rumen.
Blood was collected by jugular venapuncture into acid-citrate-dextrose anticoagulant. Lymphocytes and neutrophils were isolated, and lymphocyte blastogenesis and neutrophil function evaluated. KIC was obtained from SOBAC, Paris, France. Zein was purchased from Freeman Industries, Tuckahoe, NY. Each experiment was statistically analyzed by analysis of variance. In sheep experiments, individual animals were the experimental units, whereas pen means were analyzed in the cattle experiment.
^2 Total white blood cell number (WBC) is the cells per mm^3.

CC(C)CC(=O)C(=O)O [KIC, alpha-ketoisocaproate]
CHOLESTEROL PLASMA: amount of cholesterol in plasma ([1]; Trial 1, CGM diet, 1% KIC (0%: 33)): 32 ng/mL
CHOLESTEROL TISSUE: amount of cholesterol in lean tissue ([1]; Trial 1, CGM diet, 1% KIC (0%: 40)): 32 ng/mg
CHOLESTEROL PLASMA: amount of cholesterol in plasma ([1]; Trial 1, SBM diet, 1% KIC (0%: 32)): 23 ng/mL
CHOLESTEROL TISSUE: amount of cholesterol in lean tissue ([1]; Trial 1, SBM diet, 1% KIC (0%: 80)): 44 ng/mg
CHOLESTEROL: lean tissue ([1]; Trial 2, CGM diet, 1% KIC (0%: 92.2), * p<.05): 81.2 ng/mg
CHOLESTEROL: lean tissue ([1]; Trial 2, SBM diet, 1% KIC (0%: 75.2)): 83.2 ng/mg
LYMPHOCYTE BLASTOGENESIS: amount of 3H-thymidine incorporated per 2 hrs. of incubation (T lymphocytes; Trial 2, CGM diet, phytohemaglutinin (0%: 6134)): 18102
LYMPHOCYTE BLASTOGENESIS: amount of 3H-thymidine incorporated per 2 hrs. of incubation (T lymphocytes; Trial 2, SBM diet, phytohemaglutinin (0%: 5993)): 14625
BKG: background blastogenesis (lymphocytes; Exp. 3, oral coated 0.02% KIC (control 1410)): 1550 Counts/min per 2 × 10^5 cells
PWM: pokeweed mitogen-stimulated blastogenesis (lymphocytes; Exp. 3, oral coated 0.02% KIC (control 23100)): 27100 Counts/min per 2 × 10^5 cells
PHA: phytohemagglutinin-stimulated blastogenesis (lymphocytes; Exp. 3, oral coated 0.02% KIC (control 40500)): 43200 Counts/min per 2 × 10^5 cells
ConA: concanavalin A-stimulated blastogenesis (lymphocytes; Exp. 3, oral coated 0.02% KIC (control 40900)): 48800 Counts/min per 2 × 10^5 cells
BKG: background blastogenesis (lymphocytes; Exp. 3, oral coated 0.07% KIC (control 1410)): 2080 Counts/min per 2 × 10^5 cells
PWM: pokeweed mitogen-stimulated blastogenesis (lymphocytes; Exp. 3, oral coated 0.07% KIC (control 23100)): 38000 Counts/min per 2 × 10^5 cells
PHA: phytohemagglutinin-stimulated blastogenesis (lymphocytes; Exp. 3, oral coated 0.07% KIC (control 40500)): 74300 Counts/min per 2 × 10^5 cells
ConA: concanavalin A-stimulated blastogenesis (lymphocytes; Exp. 3, oral coated 0.07% KIC (control 40900)): 75400 Counts/min per 2 × 10^5 cells
BKG: background blastogenesis (lymphocytes; Exp. 3, oral coated 0.20% KIC (control 1410)): 1690 Counts/min per 2 × 10^5 cells
PWM: pokeweed mitogen-stimulated blastogenesis (lymphocytes; Exp. 3, oral coated 0.20% KIC (control 23100)): 30500 Counts/min per 2 × 10^5 cells
PHA: phytohemagglutinin-stimulated blastogenesis (lymphocytes; Exp. 3, oral coated 0.20% KIC (control 40500)): 56900 Counts/min per 2 × 10^5 cells
ConA: concanavalin A-stimulated blastogenesis (lymphocytes; Exp. 3, oral coated 0.20% KIC (control 40900)): 54400 Counts/min per 2 × 10^5 cells
% SEG (white blood cells; Exp. 3, oral coated 0.02% KIC (control 28)): 29% of Total WBC
% LYM (white blood cells; Exp. 3, oral coated 0.02% KIC (control 52)): 63% of Total WBC
% EOS (white blood cells; Exp. 3, oral coated 0.02% KIC (control .7)): .9% of Total WBC
% SEG (white blood cells; Exp. 3, oral coated 0.07% KIC (control 28)): 24% of Total WBC
% LYM (white blood cells; Exp. 3, oral coated 0.07% KIC (control 52)): 69% of Total WBC
% EOS (white blood cells; Exp. 3, oral coated 0.07% KIC (control .7)): .7% of Total WBC
% SEG (white blood cells; Exp. 3, oral coated 0.20% KIC (control 28)): 24% of Total WBC
% LYM (white blood cells; Exp. 3, oral coated 0.20% KIC (control 52)): 52% of Total WBC
% EOS (white blood cells; Exp. 3, oral coated 0.20% KIC (control .7)): 1.1% of Total WBC
